Article PMC3855752, “Function and Distribution of 5-HT2 Receptors in the Honeybee (Apis mellifera)” (PLoS ONE, 2013)
Read-outs that look alike come from different tables or passages of the source.

Key:
Type in all cases: cell-based
Am5-HT2α [1] = molecular target: T1, Am5-HT2α (Apis mellifera, UniProt A0A8U1C256); test: Fluo-4 intracellular Ca2+ assay in stable HEK […] cells
T1 construct: gene 5-HT2alpha; cDNA from drone brain

Am5-HT2β [2] = molecular target: T2, Am5-HT2β (Apis mellifera, UniProt A0ACM8QMF9); test: as above
T2 construct: gene 5-HT2beta; cDNA from drone brain
T2 sequence (A0ACM8QMF9 entry or part of it): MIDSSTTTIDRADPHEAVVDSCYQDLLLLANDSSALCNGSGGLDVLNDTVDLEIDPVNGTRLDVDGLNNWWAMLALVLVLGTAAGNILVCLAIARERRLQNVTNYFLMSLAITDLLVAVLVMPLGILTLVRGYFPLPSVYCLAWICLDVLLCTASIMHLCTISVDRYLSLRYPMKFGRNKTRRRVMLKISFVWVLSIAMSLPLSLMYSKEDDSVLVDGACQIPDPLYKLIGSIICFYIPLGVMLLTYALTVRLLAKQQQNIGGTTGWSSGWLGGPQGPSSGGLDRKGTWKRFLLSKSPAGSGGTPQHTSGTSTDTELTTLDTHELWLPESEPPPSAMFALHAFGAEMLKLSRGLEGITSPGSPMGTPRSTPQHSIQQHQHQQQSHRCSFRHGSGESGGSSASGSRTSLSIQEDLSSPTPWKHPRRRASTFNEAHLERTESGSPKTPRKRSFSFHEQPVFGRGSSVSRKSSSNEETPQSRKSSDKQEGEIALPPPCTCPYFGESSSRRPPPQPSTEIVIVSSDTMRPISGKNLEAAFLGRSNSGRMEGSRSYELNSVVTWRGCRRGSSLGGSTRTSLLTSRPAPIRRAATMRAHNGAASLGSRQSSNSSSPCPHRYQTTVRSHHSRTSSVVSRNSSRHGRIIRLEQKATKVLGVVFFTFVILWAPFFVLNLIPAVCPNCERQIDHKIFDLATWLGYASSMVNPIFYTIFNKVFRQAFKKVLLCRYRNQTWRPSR

Am5-HT2α [3] = molecular target: T1, Am5-HT2α; test: Fluo-4 intracellular Ca2+ assay in stable HEK […] cells, inhibition of serotonin response; conditions: read-out: Am5-HT2αIC50
Am5-HT2β [4] = molecular target: T2, Am5-HT2β; test: as above; conditions: read-out: Am5-HT2βIC50

T1 sequence (A0A8U1C256 entry or part of it): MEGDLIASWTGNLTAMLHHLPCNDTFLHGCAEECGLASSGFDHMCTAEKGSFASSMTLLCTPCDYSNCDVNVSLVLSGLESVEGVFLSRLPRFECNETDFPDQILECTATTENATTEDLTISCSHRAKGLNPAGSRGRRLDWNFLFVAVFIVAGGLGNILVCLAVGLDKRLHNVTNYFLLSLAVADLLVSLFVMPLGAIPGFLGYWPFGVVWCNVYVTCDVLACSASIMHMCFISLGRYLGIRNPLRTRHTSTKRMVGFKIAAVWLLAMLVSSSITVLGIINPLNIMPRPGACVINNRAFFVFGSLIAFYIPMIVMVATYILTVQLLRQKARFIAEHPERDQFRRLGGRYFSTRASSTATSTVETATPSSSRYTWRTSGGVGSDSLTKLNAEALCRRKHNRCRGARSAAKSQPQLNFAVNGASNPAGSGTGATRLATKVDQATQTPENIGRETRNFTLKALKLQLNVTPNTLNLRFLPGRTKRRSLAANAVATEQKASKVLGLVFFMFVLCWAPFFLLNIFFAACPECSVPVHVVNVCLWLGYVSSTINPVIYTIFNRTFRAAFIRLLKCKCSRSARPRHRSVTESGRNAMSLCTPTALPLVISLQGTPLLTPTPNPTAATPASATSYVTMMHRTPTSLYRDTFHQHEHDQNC

COc1ccc2[nH]cc(CCN)c2c1 [5-methoxytryptamine]
EC50 (Am5-HT2α [1]): 70 nM | EC50 (Am5-HT2β [2]): 60.4 nM

CCCN(CCC)C1CCc2cccc(O)c2C1 (stereo not shown) [8-OH-DPAT, 8-hydroxy-2-(di-n-propylamino)tetralin]
EC50 (Am5-HT2α [1]; read-out: EC50): 55900 nM | EC50 (Am5-HT2β [2]; read-out: EC50): 562 nM

Cn1ccc2cc(NC(=O)Nc3cccnc3)ccc21 [SB-200646]
IC50 (Am5-HT2α [3]): 100 nM

O=C(c1ccc(F)cc1)C1CCN(CCn2c(=O)[nH]c3ccccc3c2=O)CC1 [ketanserin]
IC50 (Am5-HT2β [4]): 1500 nM

CSc1ccc2c(c1)C(N1CCN(C)CC1)Cc1ccccc1S2 (stereo not shown) [methiothepin]
IC50 (Am5-HT2α [3]): 600 nM

CC[C@@H](CO)NC(=O)[C@@H]1C=C2c3cccc4c3c(cn4C)C[C@H]2N(C)C1 [methysergide]
IC50 (Am5-HT2α [3]): 2200 nM

NCCc1c[nH]c2ccc(O)cc12 [serotonin]
EC50 (Am5-HT2α [1]; read-out: EC50): 25.7 nM | EC50 (Am5-HT2β [2]; read-out: EC50): 32.5 nM
